Experimental data: publication PMC8191315 (European Journal of Medicinal Chemistry, 2021)

Target: SARS-CoV-2 RdRp (Severe acute respiratory syndrome coronavirus 2, UniProt P0DTD1)
Assay type: cell-based
Settings: 5 μM and 10 μM, HEK293T cells, 24 h, real-time qRT-PCR

SMILES	levels of viral plus- and minus-strand Gluc RNA
O=C(CSc1c[nH]c2cccc(Br)c12)N(Cc1ccccc1)Cc1ccccc1 [6d2, N,N-dibenzyl-2-((4-bromo-1H-indol-3-yl)thio)acetamide]	decreased the levels of viral plus- and minus-strand Gluc RNA in a dose-dependent manner
CN(Cc1ccccc1)C(=O)CSc1c[nH]c2ccccc12 [6b5, 2-((1H-indol-3-yl)thio)-N-benzyl-N-methylacetamide]	decreased the levels of viral plus- and minus-strand Gluc RNA in a dose-dependent manner
COc1ccccc1CNC(=O)CSc1c[nH]c2c(-c3ccccc3)cccc12 [6c9, N-(2-methoxybenzyl)-2-((7-phenyl-1H-indol-3-yl)thio)acetamide]	decreased the levels of viral plus- and minus-strand Gluc RNA in a dose-dependent manner
O=C(CSc1c[nH]c2ccccc12)N(Cc1ccccc1)Cc1ccccc1 [6b2, N,N-dibenzyl-2-((1H-indol-3-yl)thio)acetamide]	decreased the levels of viral plus- and minus-strand Gluc RNA in a dose-dependent manner
CCOc1ccccc1CN(OC)C(=O)CSc1c[nH]c2cccc(Br)c12 [6d5, N-(2-ethoxybenzyl)-2-((4-bromo-1H-indol-3-yl)thio)-N-methoxyacetamide]	decreased the levels of viral plus- and minus-strand Gluc RNA in a dose-dependent manner
